Test results as given in patent US20080241254A1, “PHARMACEUTICAL COMPOSITION COMPRISING ATOVAQUONE PARTICLES” (priority 2007, published 2008).

Legend:
[1] = Particle size of atovaquone particles, light scattering (Malvern Mastersizer); format: physicochemical; settings: milled atovaquone particles before formulation
Description: Conventionally known particle size analysis methods can be used suitably for determining the particle size. For example, particle size measurement can be done using light-scattering methods and turbidimetric methods, sedimentation methods, such as pipette analysis technique using an Andreassen pipette, sedimentation scales, photosedimentometers and sedimentation in a centrifugal force field, pulse methods, for example using a Coulter counter, or sorting by means of gravitational or centrifugal force.
The term “d9o value” means at least 90% of atovaquone particles have volume diameter less than specified value when measured by a light scattering method, for example, Malvern Mastersizer.
Atovaquone was air jet milled using at inlet feeder air pressure of 6 kg/cm2 and inlet miller air pressure of 8 kg/cm2 at the rate of 100 g/hour. After one cycle the contents were again milled through air jet mill for second cycle to obtain the desired particle size.

[2] = single oral dose, presence of fatty food; cited from earlier work
[3] = cited from earlier work

In the case of O=C1C(O)=C(C2CCC(c3ccc(Cl)cc3)CC2)C(=O)c2ccccc21 (stereo not shown) [Atovaquone, 2-[4-(4-chlorophenyl)cyclohexyl]-3-hydroxy-1,4-naphthoquinone], the d90 particle size [1] is given as 5.34 μm, the d50 particle size ([1]; measured by Malvern) is given as 2.42 μm and the “effect of fatty food on absorption” value [2] is given as “increased about threefold”. The aqueous solubility [3] was “low aqueous solubility”.
